Laboratory results published in patent US8192962B2, “Processes for detecting toxic substances” (Daikin Industries, Ltd., priority 2001, dated 2012).

Test system: Genes belonging to other category
Test: DNA chip mRNA expression in yeast, genes belonging to other category (Table 9)
Assay type: cell-based, Saccharomyces cerevisiae S288C
Procedure, shortened: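 Chemical exposure: 2 h, log-phase S. cerevisiae S288C, YPD, 25° C., dose set to inhibit growth without death. Profiling: mRNA labeled by reverse transcription with Cy3- or Cy5-dUTP, hybridized to whole-genome array. Output: fluorescence ratio against untreated culture.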

## N#Cc1c(Cl)c(Cl)c(Cl)c(C#N)c1Cl [(9), 2,4,5,6-tetrachloro-1,3-benzenedicarbonitrile]
Yeast gene YER009W
  The level of expressed mRNA in the presence of chemical substance/The level of expressed mRNA in the absence of chemical substance: 0.7
Yeast gene YER012W
  The level of expressed mRNA in the presence of chemical substance/The level of expressed mRNA in the absence of chemical substance: 6.7
Yeast gene YER029C
  The level of expressed mRNA in the presence of chemical substance/The level of expressed mRNA in the absence of chemical substance: 1.4
Yeast gene YER039C
  The level of expressed mRNA in the presence of chemical substance/The level of expressed mRNA in the absence of chemical substance: 1.2
Yeast gene YER094C
  The level of expressed mRNA in the presence of chemical substance/The level of expressed mRNA in the absence of chemical substance: 2.3
Yeast gene YER098W
  The level of expressed mRNA in the presence of chemical substance/The level of expressed mRNA in the absence of chemical substance: 2.8
Yeast gene YER107C
  The level of expressed mRNA in the presence of chemical substance/The level of expressed mRNA in the absence of chemical substance: 0.4
Yeast gene YER130C
  The level of expressed mRNA in the presence of chemical substance/The level of expressed mRNA in the absence of chemical substance: 0.5
Yeast gene YER136W
  The level of expressed mRNA in the presence of chemical substance/The level of expressed mRNA in the absence of chemical substance: 1.4
Yeast gene YER177W
  The level of expressed mRNA in the presence of chemical substance/The level of expressed mRNA in the absence of chemical substance: 1.8
Yeast gene YER184C
  The level of expressed mRNA in the presence of chemical substance/The level of expressed mRNA in the absence of chemical substance: 4.6
Yeast gene YFL022C
  The level of expressed mRNA in the presence of chemical substance/The level of expressed mRNA in the absence of chemical substance: 0.5
Yeast gene YFL028C
  The level of expressed mRNA in the presence of chemical substance/The level of expressed mRNA in the absence of chemical substance: 2.7
Yeast gene YFL038C
  The level of expressed mRNA in the presence of chemical substance/The level of expressed mRNA in the absence of chemical substance: 2.1
Yeast gene YFL043C
  The level of expressed mRNA in the presence of chemical substance/The level of expressed mRNA in the absence of chemical substance: 2.2
Yeast gene YFR050C
  The level of expressed mRNA in the presence of chemical substance/The level of expressed mRNA in the absence of chemical substance: 3.1
Yeast gene YGL011C
  The level of expressed mRNA in the presence of chemical substance/The level of expressed mRNA in the absence of chemical substance: 2.0
Yeast gene YGL048C
  The level of expressed mRNA in the presence of chemical substance/The level of expressed mRNA in the absence of chemical substance: 2.4
Yeast gene YGL158W
  The level of expressed mRNA in the presence of chemical substance/The level of expressed mRNA in the absence of chemical substance: −0.4
Yeast gene YGL208W
  The level of expressed mRNA in the presence of chemical substance/The level of expressed mRNA in the absence of chemical substance: 1.4
Yeast gene YGL229C
  The level of expressed mRNA in the presence of chemical substance/The level of expressed mRNA in the absence of chemical substance: 1.8
Yeast gene YGR120C
  The level of expressed mRNA in the presence of chemical substance/The level of expressed mRNA in the absence of chemical substance: 0.3
Yeast gene YGR131W
  The level of expressed mRNA in the presence of chemical substance/The level of expressed mRNA in the absence of chemical substance: 1.9
Yeast gene YGR136W
  The level of expressed mRNA in the presence of chemical substance/The level of expressed mRNA in the absence of chemical substance: 2.1
Yeast gene YGR189C
  The level of expressed mRNA in the presence of chemical substance/The level of expressed mRNA in the absence of chemical substance: 0.3
Yeast gene YGR213C
  The level of expressed mRNA in the presence of chemical substance/The level of expressed mRNA in the absence of chemical substance: 7.5
Yeast gene YGR257C
  The level of expressed mRNA in the presence of chemical substance/The level of expressed mRNA in the absence of chemical substance: 1.5
Yeast gene YHL024W
  The level of expressed mRNA in the presence of chemical substance/The level of expressed mRNA in the absence of chemical substance: 2.1
Yeast gene YHR004C
  The level of expressed mRNA in the presence of chemical substance/The level of expressed mRNA in the absence of chemical substance: 1.1
Yeast gene YHR012W
  The level of expressed mRNA in the presence of chemical substance/The level of expressed mRNA in the absence of chemical substance: 4.9
Yeast gene YHR071W
  The level of expressed mRNA in the presence of chemical substance/The level of expressed mRNA in the absence of chemical substance: 1.0
Yeast gene YHR109W
  The level of expressed mRNA in the presence of chemical substance/The level of expressed mRNA in the absence of chemical substance: 2.4
Yeast gene YHR124W
  The level of expressed mRNA in the presence of chemical substance/The level of expressed mRNA in the absence of chemical substance: 3.0
Yeast gene YHR139C
  The level of expressed mRNA in the presence of chemical substance/The level of expressed mRNA in the absence of chemical substance: 107.2
Yeast gene YHR142W
  The level of expressed mRNA in the presence of chemical substance/The level of expressed mRNA in the absence of chemical substance: 0.4
Yeast gene YHR160C
  The level of expressed mRNA in the presence of chemical substance/The level of expressed mRNA in the absence of chemical substance: 2.3
Yeast gene YHR163W
  The level of expressed mRNA in the presence of chemical substance/The level of expressed mRNA in the absence of chemical substance: 1.4
Yeast gene YHR171W
  The level of expressed mRNA in the presence of chemical substance/The level of expressed mRNA in the absence of chemical substance: 2.1
Yeast gene YIL123W
  The level of expressed mRNA in the presence of chemical substance/The level of expressed mRNA in the absence of chemical substance: 0.1
Yeast gene YIL140W
  The level of expressed mRNA in the presence of chemical substance/The level of expressed mRNA in the absence of chemical substance: 0.7
Yeast gene YIR018W
  The level of expressed mRNA in the presence of chemical substance/The level of expressed mRNA in the absence of chemical substance: 4.0
Yeast gene YJL073W
  The level of expressed mRNA in the presence of chemical substance/The level of expressed mRNA in the absence of chemical substance: 1.7
Yeast gene YJL089W
  The level of expressed mRNA in the presence of chemical substance/The level of expressed mRNA in the absence of chemical substance: 1.6
Yeast gene YJL113W
  The level of expressed mRNA in the presence of chemical substance/The level of expressed mRNA in the absence of chemical substance: 1.3
Yeast gene YJL116C
  The level of expressed mRNA in the presence of chemical substance/The level of expressed mRNA in the absence of chemical substance: 2.4
Yeast gene YJL146W
  The level of expressed mRNA in the presence of chemical substance/The level of expressed mRNA in the absence of chemical substance: 1.0
Yeast gene YJR004C
  The level of expressed mRNA in the presence of chemical substance/The level of expressed mRNA in the absence of chemical substance: 0.3
Yeast gene YJR036C
  The level of expressed mRNA in the presence of chemical substance/The level of expressed mRNA in the absence of chemical substance: 1.4
Yeast gene YJR058C
  The level of expressed mRNA in the presence of chemical substance/The level of expressed mRNA in the absence of chemical substance: 1.9
Yeast gene YJR086W
  The level of expressed mRNA in the presence of chemical substance/The level of expressed mRNA in the absence of chemical substance: 1.4
